Data taken from ChEMBL document CHEMBL1201862, “PubChem BioAssay data set” (2004).
Activity calls are given as the source filed them.

Columns and labels:
[1] = tested on: HEK293; assay: NOD2 signaling inhibitors in MDP-stimulated cells, cell-based, uHTS, luminescence (AID 2001); format: functional; conditions: Homo sapiens
[2] = target: T1, Microphthalmia-associated transcription factor (Homo sapiens, UniProt O75030); assay: TRPM1 promoter luciferase signal decrease, dose response, MITF inhibitor project, cell-based, SK-MEL-5, cherry-picked, set 3 (AID 493073); format: functional
T1 sequence (O75030 whole entry): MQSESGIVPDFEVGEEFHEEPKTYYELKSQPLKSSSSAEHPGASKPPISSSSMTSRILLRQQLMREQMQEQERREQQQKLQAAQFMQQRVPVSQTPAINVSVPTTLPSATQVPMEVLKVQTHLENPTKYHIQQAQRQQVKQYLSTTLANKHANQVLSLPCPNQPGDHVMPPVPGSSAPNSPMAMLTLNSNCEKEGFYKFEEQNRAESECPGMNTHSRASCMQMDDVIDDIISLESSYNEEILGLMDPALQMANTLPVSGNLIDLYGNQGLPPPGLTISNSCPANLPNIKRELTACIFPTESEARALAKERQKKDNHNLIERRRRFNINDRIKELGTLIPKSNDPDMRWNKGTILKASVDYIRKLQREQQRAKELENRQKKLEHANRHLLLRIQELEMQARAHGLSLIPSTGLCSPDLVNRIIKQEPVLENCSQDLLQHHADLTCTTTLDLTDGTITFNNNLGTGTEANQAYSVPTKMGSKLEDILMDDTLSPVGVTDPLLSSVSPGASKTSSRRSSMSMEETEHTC

[3] = tested on: HEK293; assay: cells; format: functional, cell-based; conditions: Homo sapiens
[4] = tested on: HEK293; assay: cytotoxicity in HEK293T NF-kB-Luc cells, SAR follow-up, cytotoxicity control for NF-kB activator project, cell-based, resazurin fluorescence (AID 493251); format: functional; conditions: Homo sapiens
[5] = tested on: HEK293; assay: cells; format: functional, cell-based; conditions: Homo sapiens; remark: listed apart in the source
[6] = tested on: HEK293; assay: cells; conditions: Homo sapiens
[7] = tested on: HEK293; assay: NOD1 signaling inhibitors, primary screen, cell-based, luminescence, uHTS (AID 1578); format: functional; conditions: Homo sapiens
[8] = cytotoxicity in HEK-293T cells, dose response, cytotoxicity control for BCR NF-kB inhibitor project, luminescence, B-cell screen hits (AID 489021); format: functional, cell-based;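 note: HEK-293T cells carrying an NF-kB luciferase reporter; cells exposed to compound for about 14 hours before viability readout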
[9] = target: Nucleotide-binding oligomerization domain-containing protein 1 (Homo sapiens, UniProt Q9Y239); assay: NOD1 signaling inhibitors, SAR follow-up, revised (AID 2333); format: functional
Sequence of Nucleotide-binding oligomerization domain-containing protein 1 (Q9Y239 whole entry, the tested form may be a part): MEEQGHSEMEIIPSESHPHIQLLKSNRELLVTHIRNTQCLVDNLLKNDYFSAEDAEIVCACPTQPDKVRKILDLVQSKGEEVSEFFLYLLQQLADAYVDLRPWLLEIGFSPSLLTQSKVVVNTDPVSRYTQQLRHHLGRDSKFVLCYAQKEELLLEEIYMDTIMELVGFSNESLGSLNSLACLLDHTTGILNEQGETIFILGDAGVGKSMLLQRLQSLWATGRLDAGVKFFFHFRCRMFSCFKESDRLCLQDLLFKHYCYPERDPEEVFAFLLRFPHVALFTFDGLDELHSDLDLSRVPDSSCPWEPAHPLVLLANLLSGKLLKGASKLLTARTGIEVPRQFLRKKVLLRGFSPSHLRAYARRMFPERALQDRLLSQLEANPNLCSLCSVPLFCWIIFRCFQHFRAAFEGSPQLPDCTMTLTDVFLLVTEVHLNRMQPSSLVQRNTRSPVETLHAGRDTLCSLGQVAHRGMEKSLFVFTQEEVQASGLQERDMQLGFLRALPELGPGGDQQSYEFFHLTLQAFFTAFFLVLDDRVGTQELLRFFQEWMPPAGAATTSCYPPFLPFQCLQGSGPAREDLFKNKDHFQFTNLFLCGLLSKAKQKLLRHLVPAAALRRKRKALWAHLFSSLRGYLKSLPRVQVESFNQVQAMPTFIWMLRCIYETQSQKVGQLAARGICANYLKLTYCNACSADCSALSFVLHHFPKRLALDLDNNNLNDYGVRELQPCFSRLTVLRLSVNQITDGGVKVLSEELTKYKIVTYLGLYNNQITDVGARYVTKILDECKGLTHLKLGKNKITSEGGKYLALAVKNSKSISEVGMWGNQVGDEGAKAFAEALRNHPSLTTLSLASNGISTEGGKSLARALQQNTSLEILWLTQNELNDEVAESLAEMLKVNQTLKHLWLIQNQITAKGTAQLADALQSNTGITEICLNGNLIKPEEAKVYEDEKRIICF

[10] = tested on: Jurkat; assay: SAR Analysis of small molecule inhibitors of […] specific antigen receptor-induced NF-kB activation in a Jurkat cell line using a luminescence assay - Set 3. [Related pubchem assays (depositor defined):AID435022, AID435025, AID465]; format: functional, cell-based; conditions: Homo sapiens
[11] = tested on: HEK293; assay: SAR Analysis of small molecule inhibitors of B-cell specific antigen receptor-induced NF-kB activation in a HEK-293T cell line using a luminescence assay - Set 2. [Related pubchem assays (depositor defined):AID435022, AID435025, AID489021]; format: functional, cell-based; conditions: Homo sapiens
[12] = target: Tumor necrosis factor (Homo sapiens, UniProt P01375); assay: TNFa-triggered NF-kB activation inhibitors, SAR follow-up, cell-based, revised (AID 2337); format: functional
Sequence of Tumor necrosis factor (P01375 whole entry, the tested form may be a part): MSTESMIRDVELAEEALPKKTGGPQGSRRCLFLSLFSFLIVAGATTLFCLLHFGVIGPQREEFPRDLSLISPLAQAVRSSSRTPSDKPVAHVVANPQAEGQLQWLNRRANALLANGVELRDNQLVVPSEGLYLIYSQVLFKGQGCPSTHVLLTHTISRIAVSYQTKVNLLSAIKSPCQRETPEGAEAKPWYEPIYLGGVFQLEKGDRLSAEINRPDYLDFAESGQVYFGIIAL

[13] = target: Nucleotide-binding oligomerization domain-containing protein 2 (Homo sapiens, UniProt Q9HC29); assay: PubChem AID 2334; format: functional
Sequence of Nucleotide-binding oligomerization domain-containing protein 2 (Q9HC29 whole entry, the tested form may be a part): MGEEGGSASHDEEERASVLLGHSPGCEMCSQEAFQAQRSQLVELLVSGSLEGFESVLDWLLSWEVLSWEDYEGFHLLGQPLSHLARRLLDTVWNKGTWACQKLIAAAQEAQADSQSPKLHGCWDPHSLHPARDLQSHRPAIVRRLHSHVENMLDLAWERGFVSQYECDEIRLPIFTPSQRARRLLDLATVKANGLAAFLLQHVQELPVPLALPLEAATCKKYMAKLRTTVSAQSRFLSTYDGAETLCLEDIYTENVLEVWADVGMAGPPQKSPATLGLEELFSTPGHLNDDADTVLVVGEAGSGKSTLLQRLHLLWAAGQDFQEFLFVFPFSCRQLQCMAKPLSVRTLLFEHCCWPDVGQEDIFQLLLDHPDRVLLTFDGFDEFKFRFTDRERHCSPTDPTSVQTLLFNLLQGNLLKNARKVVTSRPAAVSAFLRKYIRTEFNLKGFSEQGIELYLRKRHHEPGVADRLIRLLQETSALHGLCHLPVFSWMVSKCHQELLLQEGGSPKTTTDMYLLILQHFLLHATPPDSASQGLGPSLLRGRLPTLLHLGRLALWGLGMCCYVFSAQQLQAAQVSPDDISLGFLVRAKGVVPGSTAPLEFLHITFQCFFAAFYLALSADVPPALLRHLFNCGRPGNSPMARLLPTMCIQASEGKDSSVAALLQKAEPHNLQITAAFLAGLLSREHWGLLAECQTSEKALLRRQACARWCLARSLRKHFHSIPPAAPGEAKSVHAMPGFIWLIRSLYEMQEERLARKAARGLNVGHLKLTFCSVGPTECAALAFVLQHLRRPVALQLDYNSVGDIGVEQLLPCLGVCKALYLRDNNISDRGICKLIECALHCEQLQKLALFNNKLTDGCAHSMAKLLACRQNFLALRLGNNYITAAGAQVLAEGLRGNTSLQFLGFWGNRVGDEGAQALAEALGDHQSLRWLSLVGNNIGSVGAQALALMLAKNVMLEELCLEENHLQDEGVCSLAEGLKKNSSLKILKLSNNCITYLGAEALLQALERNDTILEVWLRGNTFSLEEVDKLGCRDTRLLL

[14] = target: G-protein coupled receptor 35 (Homo sapiens, UniProt Q9HC97); assay: SAR Analysis for the identification of Selective Antagonists of ERK1/2 Activity in GPR35-Overexpressing U2OS Cells. [Related pubchem assays: 2079, 2058 ]; format: functional, cell-based
Sequence of G-protein coupled receptor 35 (Q9HC97 whole entry): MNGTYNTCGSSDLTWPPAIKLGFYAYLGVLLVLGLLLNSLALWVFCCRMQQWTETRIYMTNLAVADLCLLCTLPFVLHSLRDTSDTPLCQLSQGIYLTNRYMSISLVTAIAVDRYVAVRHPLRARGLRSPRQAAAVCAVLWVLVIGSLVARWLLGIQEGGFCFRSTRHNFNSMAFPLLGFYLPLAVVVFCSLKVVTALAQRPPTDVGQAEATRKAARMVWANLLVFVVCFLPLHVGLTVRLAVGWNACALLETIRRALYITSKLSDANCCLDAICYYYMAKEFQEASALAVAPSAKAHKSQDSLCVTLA

[15] = target: G-protein coupled receptor 55 (Homo sapiens, UniProt Q9Y2T6); assay: GPR55 antagonists, SAR follow-up, counter-screen for GPR35 antagonist project, imaging, image-based (AID 2397); format: functional
Sequence of G-protein coupled receptor 55 (Q9Y2T6 whole entry): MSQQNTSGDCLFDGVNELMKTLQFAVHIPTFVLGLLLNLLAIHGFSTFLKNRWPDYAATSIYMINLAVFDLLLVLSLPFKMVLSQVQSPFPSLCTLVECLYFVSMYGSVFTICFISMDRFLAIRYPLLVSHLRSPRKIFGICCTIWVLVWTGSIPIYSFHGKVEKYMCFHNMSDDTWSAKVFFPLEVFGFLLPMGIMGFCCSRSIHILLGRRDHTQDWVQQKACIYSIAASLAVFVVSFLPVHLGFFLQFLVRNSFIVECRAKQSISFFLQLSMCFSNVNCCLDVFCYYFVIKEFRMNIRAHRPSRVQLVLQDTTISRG

[16] = target: Beta-adrenergic receptor kinase 1 (Homo sapiens, UniProt P25098); assay: GRK2 inhibitors displacing RNA aptamer, dose response, biochemical, flow cytometry beads, FAM-aptamer, powder set 1 (AID 588720)
Sequence of Beta-adrenergic receptor kinase 1 (P25098 whole entry): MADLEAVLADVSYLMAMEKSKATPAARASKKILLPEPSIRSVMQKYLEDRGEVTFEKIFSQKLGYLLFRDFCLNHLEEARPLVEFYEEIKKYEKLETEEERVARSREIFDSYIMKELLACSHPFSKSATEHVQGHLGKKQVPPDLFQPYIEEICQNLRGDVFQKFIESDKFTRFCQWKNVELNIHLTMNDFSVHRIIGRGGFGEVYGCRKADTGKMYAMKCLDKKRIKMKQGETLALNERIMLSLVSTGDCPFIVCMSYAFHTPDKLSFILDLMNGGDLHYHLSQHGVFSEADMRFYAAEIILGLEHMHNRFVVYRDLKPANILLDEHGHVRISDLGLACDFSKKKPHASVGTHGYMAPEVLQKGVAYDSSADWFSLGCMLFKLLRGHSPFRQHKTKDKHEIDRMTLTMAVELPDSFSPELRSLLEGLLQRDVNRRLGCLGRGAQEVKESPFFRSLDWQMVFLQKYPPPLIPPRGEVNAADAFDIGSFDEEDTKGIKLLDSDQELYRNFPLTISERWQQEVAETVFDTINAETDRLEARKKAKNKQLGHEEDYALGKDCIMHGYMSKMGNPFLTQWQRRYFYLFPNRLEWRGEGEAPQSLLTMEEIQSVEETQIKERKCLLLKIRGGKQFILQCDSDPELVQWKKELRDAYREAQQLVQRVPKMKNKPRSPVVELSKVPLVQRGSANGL

[17] = target: Intestinal-type alkaline phosphatase (Mus musculus, UniProt P24822); assay: PubChem AID 488785; format: functional
Sequence of Intestinal-type alkaline phosphatase (Mus musculus, UniProt P24822) (P24822 whole entry): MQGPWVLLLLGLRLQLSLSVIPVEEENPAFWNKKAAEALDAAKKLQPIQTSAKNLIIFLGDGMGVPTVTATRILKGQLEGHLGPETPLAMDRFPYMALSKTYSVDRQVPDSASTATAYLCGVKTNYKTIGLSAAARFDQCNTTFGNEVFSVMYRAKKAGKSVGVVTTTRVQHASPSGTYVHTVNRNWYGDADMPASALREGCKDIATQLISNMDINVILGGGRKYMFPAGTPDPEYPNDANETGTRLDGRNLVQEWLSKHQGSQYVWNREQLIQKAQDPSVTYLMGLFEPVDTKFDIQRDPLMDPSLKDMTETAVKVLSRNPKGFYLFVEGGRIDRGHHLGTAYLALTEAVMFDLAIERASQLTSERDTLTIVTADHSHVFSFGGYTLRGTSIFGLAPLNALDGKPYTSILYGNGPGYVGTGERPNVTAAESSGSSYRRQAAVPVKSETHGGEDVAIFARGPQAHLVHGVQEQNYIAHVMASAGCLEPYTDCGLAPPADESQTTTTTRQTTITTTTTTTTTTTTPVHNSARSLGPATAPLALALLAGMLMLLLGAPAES

[18] = target: T2, Long-chain-fatty-acid--AMP ligase FadD28 (Mycobacterium tuberculosis, UniProt P9WQ59); assay: Fluorescence polarization aasay to screen for inhibitors that compete for the binding of FadD28 to a bisubstrate Measured in Biochemical System Using Plate Reader - 2147-01_Inhibitor_Dose_CherryPick_Activity.; format: functional, Mycobacterium tuberculosis H37Rv
T2 sequence (P9WQ59 whole entry): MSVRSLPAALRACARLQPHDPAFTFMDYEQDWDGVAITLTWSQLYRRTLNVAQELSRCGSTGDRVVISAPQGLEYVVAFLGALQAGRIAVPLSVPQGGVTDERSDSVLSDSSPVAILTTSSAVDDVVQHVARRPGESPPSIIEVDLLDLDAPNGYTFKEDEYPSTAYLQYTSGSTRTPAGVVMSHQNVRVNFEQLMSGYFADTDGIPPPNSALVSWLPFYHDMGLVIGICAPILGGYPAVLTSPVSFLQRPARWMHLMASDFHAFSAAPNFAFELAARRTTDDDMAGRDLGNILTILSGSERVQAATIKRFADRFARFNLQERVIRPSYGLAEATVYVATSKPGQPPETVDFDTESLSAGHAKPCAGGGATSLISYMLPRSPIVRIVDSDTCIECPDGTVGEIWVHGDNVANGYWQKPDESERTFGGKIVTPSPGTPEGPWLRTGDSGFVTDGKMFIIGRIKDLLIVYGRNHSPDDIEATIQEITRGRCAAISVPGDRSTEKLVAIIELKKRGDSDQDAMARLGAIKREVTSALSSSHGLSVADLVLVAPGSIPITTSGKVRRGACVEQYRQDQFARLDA

[19] = target: T3, Alkaline phosphatase, tissue-nonspecific isozyme (Homo sapiens, UniProt P05186); assay: TNAP enzyme inhibition by screening hits, dose response, selectivity assay for mouse IAP inhibitor project, biochemical, human TNAP, uHTS hits (AID 488906); format: functional
T3 sequence (P05186 whole entry): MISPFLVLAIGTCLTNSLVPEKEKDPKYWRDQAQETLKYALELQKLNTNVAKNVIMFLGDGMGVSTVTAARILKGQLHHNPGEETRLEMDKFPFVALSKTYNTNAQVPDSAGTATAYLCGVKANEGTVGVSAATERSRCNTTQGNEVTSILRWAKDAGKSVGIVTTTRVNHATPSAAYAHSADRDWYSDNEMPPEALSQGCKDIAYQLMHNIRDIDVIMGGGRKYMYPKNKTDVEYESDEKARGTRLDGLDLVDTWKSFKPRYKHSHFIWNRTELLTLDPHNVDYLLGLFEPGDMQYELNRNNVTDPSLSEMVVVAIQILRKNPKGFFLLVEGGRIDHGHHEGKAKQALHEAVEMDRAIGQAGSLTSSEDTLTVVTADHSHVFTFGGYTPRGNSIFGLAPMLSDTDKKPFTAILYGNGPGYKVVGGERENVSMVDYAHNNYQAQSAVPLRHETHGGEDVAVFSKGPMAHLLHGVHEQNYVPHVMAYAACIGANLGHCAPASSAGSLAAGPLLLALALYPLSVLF

[20] = target: Intestinal-type alkaline phosphatase (Homo sapiens, UniProt P09923); assay: inhibition of human intestinal alkaline phosphatase – biochemical, dose response (AID 488876); format: functional
Sequence of Intestinal-type alkaline phosphatase (Homo sapiens, UniProt P09923) (P09923 whole entry): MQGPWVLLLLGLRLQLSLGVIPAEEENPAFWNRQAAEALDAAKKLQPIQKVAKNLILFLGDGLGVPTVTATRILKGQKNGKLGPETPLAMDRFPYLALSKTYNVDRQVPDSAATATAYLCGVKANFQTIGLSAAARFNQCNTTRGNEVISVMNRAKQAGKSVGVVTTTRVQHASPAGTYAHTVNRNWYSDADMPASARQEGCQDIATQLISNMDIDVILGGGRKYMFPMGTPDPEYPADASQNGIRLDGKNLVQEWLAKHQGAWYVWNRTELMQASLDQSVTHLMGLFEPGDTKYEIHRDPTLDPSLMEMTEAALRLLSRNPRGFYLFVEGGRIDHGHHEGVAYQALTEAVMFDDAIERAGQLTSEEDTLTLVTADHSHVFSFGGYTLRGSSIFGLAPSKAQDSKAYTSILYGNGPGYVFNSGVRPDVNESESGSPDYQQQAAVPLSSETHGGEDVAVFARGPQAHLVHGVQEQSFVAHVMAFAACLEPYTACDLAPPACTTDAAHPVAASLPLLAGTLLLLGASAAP

## CC(C)(C)c1ccc(-c2noc(CCC(=O)NCc3ccco3)n2)cc1
[1]
  IC50: > 20 µM (inactive)
[2]
  AC50: 0.122 µM (active)
[3]
  IC50: > 20 µM (inactive)
[4]
  IC50: 49.2 µM (inactive)
[5]
  IC50: > 20 µM (inactive)
[6]
  IC50: > 20 µM (inactive)
[7]
  EC50: 8.42 µM (active)
[8]
  IC50: > 80 µM (inactive)
[9]
  IC50: 3.68 µM (active)
[10]
  IC50: > 80 µM (inactive)
[11]
  IC50: 2.39 µM (active)
[12]
  IC50: 6.76 µM (active)
[13]
  IC50: 2.16 µM (active)

## Cc1c(C(=O)Nc2ccc3c(c2)OCCO3)sc2ncnc(N3CCC(C)CC3)c12
[14]
  IC50: 20.6 µM (not active)
[15]
  IC50: 21.4 µM (inactive)

## Cc1cccc(N2CCN(C(=O)CCS(=O)(=O)c3ccc(Br)cc3)CC2C)c1 (stereo not given)
[16]
  EC50: 2 µM (active)

## O=C(NN1C(=O)/C(=C/c2ccc(O)c(O)c2)SC1=S)c1ccccc1
[17]
  IC50: 1.28 µM (active)
[18]
  AC50: 1.41 µM (active)
[19]
  IC50: 20 µM (active)
[20]
  IC50: > 100 µM (inactive)
